The values that follow come from patent US20250304578A1, “NITROGEN-CONTAINING FUSED HETEROCYCLIC COMPOUNDS OF N-SULFONAMIDE AND USE THEREOF” (NUTSHELL THERAPEUTICS (SHANGHAI) CO., LTD., priority 2023, published 2025).

One series deals with NUGC-3 cells. The series is described as follows: Anti-proliferation effect on NUGC-3 cells (Cell Counting Kit-8). In kind it is cell-based. Conditions: Homo sapiens, NUGC-3, 120 h; 5 days of treatment. The protocol:
Cell line NUGC-3 (JCRB, JCRB0822) was cultured in RPMI 1640 (Invitrogen, 11875-085) medium supplemented with 10% (v/v) fetal bovine serum (BI, 04-002-1A), according to the standard instructions of the American Type Culture Collection. The cell line was authenticated by short tandem repeat profiling.
In the proliferation assay, 1000 NUGC-3 cells were seeded in a 96-well flat clear bottom, TC-treated plate (Corning, 3903) in 200 μL of medium per well, and allowed to recover overnight in culture medium. Compounds were added with increasing concentration, with DMSO treatment serving as a […] control. After 5 days of treatment, the plate was equilibrated to room temperature for 30 minutes, and the number of living cells was measured by the addition of the Cell Counting Kit-8 reagent (MCE, HY-K0301). Absorbance was measured on an Enspire (Perkin elme). The relative viability of each group was presented as the percentage change relative to the […] control group and then fit to a four-parameter logit non-linear curve using the program XLFit (IDBS)
On the technique in general: Tetrazolium dyes change colour on reduction, which living cells bring about.

Series [1] in a line: Metabolic stability in liver microsomes. To be noted: for microsomal CLint at 1 μM: read-out: In vitro Clint (μL/min/mg protein); for half-life at 1 μM: read-out: In vitro t1/2. In kind it is in vitro ADME. On the procedure: The test compound and the positive control compound (dextromethorphan as a control compound) were dissolved respectively in DMSO to prepare a stock solution with a concentration of 10 mM, and the above stock solution was diluted into 200 μM working solution with DMSO. 8.709 g of potassium hydrogen phosphate (K2HPO4) was dissolved in 950 mL of water, and the pH value of the solution was adjusted to 7.4 with hydrochloric acid, and then the volume was adjusted to 1000 mL with water. After filtration using a 0.22 μm filter membrane, the mixture was stored in a 4° C. refrigerator for later use. After liver microsomes of various species (protein concentration of 20 mg/mL) were thawed in a 37° C. water bath, the liver microsomes were diluted with a phosphate buffer respectively to obtain a liver microsome working solution with protein concentration of 0.629 mg/mL. 5 mM NADPH solution was prepared using the above phosphate buffer for later use. 1 mg/mL stock solution of terfenadine/tolbutamide was prepared with DMSO and then diluted with a 50% methanol/50% acetonitrile mixed solution to a reaction stop solution containing 5/10 ng/mL (terfenadine/tolbutamide) internal standard.
238.5 μL of liver microsome working solutions of various species were added to a 1.1 mL microtube, and 1.5 μL of the test compound working solution or the positive control compound (dextromethorphan) working solution (200 μM) was added respectively, mixed well, and pre-incubated in a 37° C. water bath for 5 minutes. 60 μL of NADPH solution was added to start the reaction, and after mixing well, at the time points of 0, 5, 15, 30, and 60 minutes after the reaction, 30 μL of the reaction mixture was respectively pipetted and added to 300 μL of the reaction stop solution. Samples from all time points were vortexed vigorously for 1 minute and centrifuged at 4000 rpm for 15 minutes at 4° C. 100 μL of the supernatant was added to 100 μL of pure water and mixed well for LC-MS/MS analysis.
The slope (ke) was determined by plotting the natural logarithm of the percentage of compound remaining against time, and the Tin and intrinsic clearance (CLint) were calculated based on the first-order kinetic formula: […]
The compound remaining rate is calculated as follows:
Intrinsic clearance CLint (μL/min/mg protein)=0.693*1000/T1/2/protein concentration (0.5 mg protein/mL)
(In general: Liver microsomes are vesicles of endoplasmic reticulum, rich in cytochrome P450 enzymes.)

A short description of series [2]: Metabolic stability test in hepatocytes. In kind it is in vitro ADME. To be noted: for hepatocyte CLint at 1 μM: read-out: In vitro Clint (μL/min/10^6 cells); for half-life at 1 μM: read-out: In vitro t1/2. The protocol:
The test compound and the control drug verapamil powder were prepared into a high concentration stock solution using DMSO, and diluted to a 100 μM working solution with 50% acetonitrile/water before use, with final concentrations of 1 μM for the test compound and verapamil.
• 1) 49.5 mL of Williams' Medium E and 0.5 mL GlutaMAX were mixed as the incubation solution. The hepatocyte recovery solution and the incubation solution were pre-warmed in a 37° C. water bath for at least 15 minutes prior to use. • 2) A tube of cryopreserved hepatocytes was taken, ensuring that the hepatocytes were still in a cryogenic frozen state prior to resuscitation. The hepatocytes were quickly placed in a 37° C. water bath and gently shaken until all ice crystals were completely dispersed, sprayed with 70% ethanol and transferred to a biosafety cabinet. • 3) The contents of the hepatocyte tube were poured into a centrifuge tube containing 50 mL of recovery medium, which were centrifuged at 100 g for 10 minutes. After centrifugation, the recovery medium was aspirated, and sufficient incubation medium was added to obtain a cell suspension having a cell density of approximately 1.5×10^6 cells/mL. • 4) Cellometer Vision was used to count hepatocytes and determine the density of viable cells. The survival rate of hepatocytes must be greater than 75%. The hepatocyte suspension was diluted with incubation medium to a viable cell density of 0.5×10^6 cells/mL. • 5) A portion of hepatocyte suspension with a density of 0.5×10^6 cells/mL was boiled in water for 5 minutes to inactivate as a negative control. After cells were inactivated, substrate conversion mediated by non-cellular enzymes could be easily investigated.
• 1) 198 μL of the suspension of live or inactivated cells was transferred to a 96-well deep-well plate, which was then placed on a vortexer and preheated in an incubator for 10 minutes. Live cells were incubated in duplicate, while inactivated cells were incubated in single. • 2) 2 μL of 100 μM test compound or verapamil was added to each well for the reaction initiation, and the deep-well plate was placed back on the incubator vortexer. • 3) 25 μL of the suspension were taken from the incubated samples at 0, 15, 30, 60, 90, and 120 minutes, respectively, and added to 150 μL of acetonitrile containing internal standards (200 nM alprazolam, 200 nM labetalol, 2 μM ketoprofen, and 200 nM caffeine) to terminate the reaction. The mixture was vortexed for 10 minutes and centrifuged at 3220 g and 4° C. for 30 minutes. After centrifugation was completed, 100 μL of the supernatant and 100 μL of ultra-pure water were mixed well for UPLC-MS/MS analysis detection.
All data calculations were performed using Microsoft Excel software. Peak areas were detected by extracting the ion chromatogram. The in vitro half-life (t1/2) of the parent drug was detected by linear fitting of the natural logarithm of the percentage of parent drug […] with time.
The in vitro half-life (t1/2) was calculated by the slope: […]
In vitro intrinsic clearance (unit μL/min/10^6 cells) was calculated using the following formula:
[formula] • V=incubation volume per well (0.2 mL); • N=number of cells per well (0.1×10^6 cells)

Another series deals with CYP3A4/5. The series is described as follows: Multi-concentration inhibitory activity curve of CYP3A4/5 enzymes. The series is classed as in vitro ADME. To be noted: pH 7.4, probe testosterone; human liver microsomes; substrate testosterone; read-out: CYP3A4/5 IC50 (μM) (Testosterone). On the procedure:
The buffer was filtered through a 0.45 μm filter.
Liver microsome working solution (final system concentration of 0.5 mg/mL) was prepared. […] The above stock solution was diluted with acetonitrile (4-fold dilution, 6 non-zero concentrations).
The half-maximal inhibitory concentration (IC50) was calculated using Graph Pad Prism.

[3] abbreviates: ICR/CD-1, pH 7.4, Mouse liver microsomes.
[4] abbreviates: Sprague Dawley, pH 7.4, Rat liver microsomes.
The mark [5] stands for this setting: cryopreserved hepatocytes in suspension, Human hepatocytes.
[6] abbreviates: cryopreserved hepatocytes in suspension, Mouse hepatocytes.
Setting [7] is: cryopreserved hepatocytes in suspension, Rat hepatocytes.
Where [8] appears, read: cryopreserved hepatocytes, Human hepatocytes.
The mark [9] stands for this setting: cryopreserved hepatocytes, Mouse hepatocytes.
The mark [10] stands for this setting: cryopreserved hepatocytes, Rat hepatocytes.

Where two headings read alike, the source gives them in different places.

Compound `[2H]C([2H])([2H])Oc1nc(C(=O)NS(C)(=O)=O)ccc1NCC#Cc1cc2c(N[C@H]3CCN(C)C[C@@H]3F)cccn2c1CC(F)(F)F` [Cpd-9, 5-((3-(8-(((3S,4S)-3-Fluoro-1-methylpiperidin-4-yl)amino)-3-(2,2,2-trifluoroethyl)indolizin-2-yl)prop-2-yn-1-yl)amino)-6-(methoxy-d3)-N-(methylsulfonyl)picolinamide] showed an IC50 in the series with NUGC-3 cells of 550 nM.

The compound `COc1nc(C(=O)NS(=O)(=O)C2CC2)ccc1NCC#Cc1cc2c(N[C@@H]3CCN(C)C[C@@H]3F)cccn2c1CC(F)(F)F` [Cpd-7, N-(Cyclopropylsulfonyl)-5-((3-(8-(((3S,4R)-3-fluoro-1-methylpiperidin-4-yl)amino)-3-(2,2,2-trifluoroethyl)indolizin-2-yl)prop-2-yn-1-yl)amino)-6-methoxypicolinamide] had an IC50 in the series with NUGC-3 cells of 70 nM.

In the series with NUGC-3 cells, `[2H]C([2H])([2H])Oc1nc(C(=O)NS(=O)(=O)CC(F)(F)F)ccc1NCC#Cc1cc2c(N[C@@H]3CCN(C)C[C@@H]3F)cccn2c1CC(F)(F)F` [Cpd-6, 5-((3-(8-(((3S,4R)-3-Fluoro-1-methylpiperidin-4-yl)amino)-3-(2,2,2-trifluoroethyl)indolizin-2-yl)prop-2-yn-1-yl)amino)-6-(methoxy-d3)-N-((2,2,2-trifluoroethyl)sulfonyl)picolinamide] showed an IC50 of 190 nM.

`[2H]C([2H])([2H])Oc1nc(C(=O)NS(=O)(=O)CC2CC2)ccc1NCC#Cc1cc2c(N[C@@H]3CCN(C)C[C@@H]3F)cccn2c1CC(F)(F)F` [Cpd-5, N-((Cyclopropylmethyl)sulfonyl)-5-((3-(8-(((3S,4R)-3-fluoro-1-methylpiperidin-4-yl)amino)-3-(2,2,2-trifluoroethyl)indolizin-2-yl)prop-2-yn-1-yl)amino)-6-(methoxy-d3)picolinamide]: in the series with NUGC-3 cells, the IC50 was determined as 81 nM.

The compound `[2H]C([2H])([2H])Oc1nc(C(=O)NS(C)(=O)=O)ccc1NCC#Cc1cc2c(N[C@@H]3CCN(C)C[C@H]3F)cccn2c1CC(F)(F)F` [Cpd-10, 5-((3-(8-(((3R,4R)-3-Fluoro-1-methylpiperidin-4-yl)amino)-3-(2,2,2-trifluoroethyl)indolizin-2-yl)prop-2-yn-1-yl)amino)-6-(methoxy-d3)-N-(methylsulfonyl)picolinamide] returned an IC50 in the series on NUGC-3 cells of 900 nM.

For the compound `CNC(=O)c1ccc(NCC#Cc2cc3c(N[C@@H]4CCN(C)C[C@@H]4F)cccn3c2CC(F)(F)F)c(OC)c1` [Cpd-C, 4-((3-(8-(((3S,4R)-3-Fluoro-1-methylpiperidin-4-yl)amino)-3-(2,2,2-trifluoroethyl)indolizin-2-yl)prop-2-yn-1-yl)amino)-3-methoxy-N-methylbenzamide, reference compound], the microsomal CLint at 1 μM in series [1] (setting [3]) turned out to be 83.9 µL/min/mg; in series [1] (setting [4]), 61.5 µL/min/mg; in series [1] (pH 7.4, Human liver microsomes) it was 28.3 µL/min/mg. Further, the half-life at 1 μM is 17 min in series [1] (setting [3]); 23 min in series [1] (setting [4]); 49 min in series [1] (pH 7.4, Human liver microsomes); 75 min in series [2] (setting [5]); 44 min in series [2] (setting [6]); 88 min in series [2] (setting [7]). Besides, the hepatocyte CLint at 1 μM stood at 18.4 µL/min/1e6 cells in series [2] (setting [5]), 31.8 µL/min/1e6 cells in series [2] (setting [6]) and 15.7 µL/min/1e6 cells in series [2] (setting [7]).

For `[2H]C([2H])([2H])Oc1nc(C(=O)NS(=O)(=O)C2CC2)ccc1NCC#Cc1cc2c(N[C@@H]3CCN(C)C[C@@H]3F)cccn2c1CC(F)(F)F` [Cpd-4, N-(Cyclopropylsulfonyl)-5-((3-(8-(((3S,4R)-3-fluoro-1-methylpiperidin-4-yl)amino)-3-(2,2,2-trifluoroethyl)indolizin-2-yl)prop-2-yn-1-yl)amino)-6-(methoxy-d3)picolinamide], the IC50 with NUGC-3 cells is 97 nM.

Turning to `[2H]C([2H])([2H])Oc1nc(C(=O)NS(C)(=O)=O)ccc1NCC#Cc1cc2c(N[C@H]3CCN(C)C[C@H]3F)cccn2c1CC(F)(F)F` [Cpd-8, 5-((3-(8-(((3R,4S)-3-Fluoro-1-methylpiperidin-4-yl)amino)-3-(2,2,2-trifluoroethyl)indolizin-2-yl)prop-2-yn-1-yl)amino)-6-(methoxy-d3)-N-(methylsulfonyl)picolinamide], the IC50 in the series on NUGC-3 cells was 340 nM.

As for `COc1cc(S(C)(=O)=O)ccc1NCC#Cc1nc2c(N[C@@H]3CCN(C)C[C@@H]3F)cccn2c1CC(F)(F)F` [Cpd-B, reference compound], the IC50 at 10 min with CYP3A4/5 stood at 3.2 µM. Also, the hepatocyte CLint at 1 μM in series [2] (setting [8]) is 16.8 µL/min/1e6 cells; in series [2] (setting [9]) it was 198 µL/min/1e6 cells; in series [2] (setting [10]), 63.8 µL/min/1e6 cells. Besides, the half-life at 1 μM in series [2] (setting [8]) stood at 82 min; in series [2] (setting [9]) it was 7 min; in series [2] (setting [10]), 22 min.
